Test results as given in patent publication US12564583B2, “Small molecules against cereblon to enhance effector T cell function” (H. LEE MOFFITT CANCER CENTER AND RESEARCH INSTITUTE, INC., priority 2016, dated 2026).

Key:
[1] = Viability relative to DMSO; assay type: cell-based; set-up: concentration or dose not given beside the values
[2] = test system: IL-2; test: IL-2 relative to DMSO; assay type: cell-based
[3] = biological target: thalidomide binding domain (TBD) of cereblon (Homo sapiens, UniProt Q96SW2); test: Cereblon binding (DSF, FP/FI); details: for inhibition at 200 µM: read-out: Cereblon Binding (≥50% inhibition at 200 μM)
Description: Several libraries are available for screening inhibitors. Virtual analysis was formulated and then theoretical design of chemical test kit and virtual screen of test kit were carried out. Physical binding studies were also completed for the initial compounds using DSF and FP assays after they are fully tested. TEST KITs that represent the compounds identified from each of the available chemical libraries based on virtual chemical structures were also made.

Sequence of thalidomide binding domain (TBD) of cereblon (Q96SW2 318-426 limits assumed): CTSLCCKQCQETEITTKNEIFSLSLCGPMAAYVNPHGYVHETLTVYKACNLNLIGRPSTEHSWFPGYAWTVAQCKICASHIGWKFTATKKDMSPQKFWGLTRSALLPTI

Structure (SMILES)	viability [1]	IL-2 (%) (Relative to DMSO) [2]	inhibition at 200 µM [3]	Cereblon Binding (≥50% inhibition at 200 μM) [3]
Cc1nc2cccc(N)c2c(=O)n1C1CCC(=O)NC1=O (stereo not shown)	84.4%	283.4%	> 50%	
CNc1ccccc1C(=O)NCCn1ccc(=O)[nH]c1=O	97%	158.7%	> 50%	
O=C1NC(=O)c2ccccc21	92.4%	110.8%		No
O=C1CCC(NS(=O)(=O)c2cccc([N+](=O)[O-])c2)C(=O)N1 (stereo not shown)	80%	143.7%		Yes*
CCNc1cccc(S(=O)(=O)NC2CCC(=O)NC2=O)c1 (stereo not shown)	100%	124.4%		Yes*
CNc1ccccc1C(=O)NCCN1CCC(=O)NC1=O	101%	167.5%		Yes*
COC(=O)c1ccccc1NC(=O)[C@H](CC(=O)NC1CCC(=O)NC1=O)NC(=O)OC(C)(C)C (stereo partly shown)	85.6%	25.0%		Yes*
Nc1cc(Cl)ccc1C(=O)NCCN1CCC(=O)NC1=O	78.7%	14.1%		Yes*
O=C1CCC(N2CCc3ccc([N+](=O)[O-])cc3C2)C(=O)N1 (stereo not shown)	84.2%	23.0%		Yes*
O=C1CCC(N2CCc3ccc(O)cc3C2)C(=O)N1 (stereo not shown)	102%	32.2%		Yes*
O=C1CCC(N2CCCC(c3ccccc3)C2)C(=O)N1 (stereo not shown)	92.1%	45.3%		Yes*
O=C1CCC(NCCNC(=O)c2ccccc2)C(=O)N1 (stereo not shown)	68.2%	46.7%		Yes*
O=C1CCC(=O)N1	75.3%	199.7%	> 50%	
Cn1cncc1C(=O)NC1CCC(=O)NC1=O (stereo not shown)	95.3%	148.0%	> 50%	
O=C1CCC(NCc2ccco2)C(=O)N1 (stereo not shown)	95.9%	136.9%	> 50%	
O=C1CCC(NCc2ccccn2)C(=O)N1 (stereo not shown)	84.9%	7.8%	> 50%	
O=C1CCC(NCc2ccc(N3CCOCC3)cc2)C(=O)N1 (stereo not shown)	94.5%	14.9%	> 50%	
Cc1ccc(C(=O)NC2CCC(=O)NC2=O)o1 (stereo not shown)	84.7%	48.0%	> 50%	
C=CCCCCCCCCC(=O)NC1CCC(=O)NC1=O (stereo not shown)	82.3%	15.6%	> 50%	
Nc1cccc(S(=O)(=O)NC2CCC(=O)NC2=O)c1 (stereo not shown)	99.7%	127.0%	> 50%	
O=C1CCC(NC(=O)CCNS(=O)(=O)c2c(F)cccc2F)C(=O)N1 (stereo not shown)	99.4%	120.1%	> 50%	

Structure (SMILES)	viability [1]	IL-2 (%) (Relative to DMSO) [2]	inhibition at 200 µM [3]	Cereblon Binding (≥50% inhibition at 200 μM) [3]
O=C(NCCn1ccc(=O)[nH]c1=O)c1ccccc1	84.2%	124.5%	> 50%	
O=C1CCC(NC(=O)CCNS(=O)(=O)c2ccccc2)C(=O)N1 (stereo not shown)	77.2%	32.7%	> 50%	
O=C1CCC(NC(=O)c2ccccc2NC(=O)CCl)C(=O)N1 (stereo not shown)	69.9%	40.3%	> 50%	
O=c1ccn(CCNS(=O)(=O)Cc2ccccc2)c(=O)[nH]1	76.7%	138.2%	> 50%	
Nc1ccc(Cl)cc1C(=O)NCCN1CCC(=O)NC1=O	78.8%	20.6%	> 50%	
O=C1CCN(CCNC(=O)c2ccccc2)C(=O)N1	84.9%	47.1%	> 50%	
CCN(Cc1ccccc1)C1CCC(=O)NC1=O (stereo not shown)	99.1%	32.1%	> 50%	
O=C1CCC(NCc2ccccc2)C(=O)N1 (stereo not shown)	98%	40.4%	> 50%	
O=C1CCC(N2CCC(c3ccccc3)CC2)C(=O)N1 (stereo not shown)	100%	41.5%	> 50%	
CN(Cc1ccc2c(c1)OCO2)C1CCC(=O)NC1=O (stereo not shown)	106%	43%	> 50%	
CC(=O)N[C@H](C(=O)NC1CCC(=O)NC1=O)C(C)C (stereo partly shown)	79.4%	126.4%		DSF (check) FI (borderline)
NC(=O)[C@H](Cc1ccccc1)NC(=O)[C@@H]1CCC(=O)N1	74.7%	39.8%		No
Nc1cccc2c1C(=O)N(C1CC(=O)NC1=O)C2=O (stereo not shown)	97%	193.8%		No
CN1C(=O)CCC(N2Cc3c(N)cccc3C2=O)C1=O.Cl (stereo not shown)	106%	199.2%		No
O=C1c2ccccc2C(=O)N1c1cc[nH]c(=O)c1	95.3%	123.3%		No
COc1ccc(C2=NNC(=O)CC2)cc1OC	100%	12.4%		No
O=C1CC[C@@H](C(=O)Nc2ccccc2)N1	106%	0.5%		No
O=C1CN(N2C(=O)c3cccc([N+](=O)[O-])c3C2=O)C(=O)N1	96.4%	50.0%		No
O=C1CC(N2C(=O)c3cccc([N+](=O)[O-])c3C2=O)C(=O)N1 (stereo not shown)	81.9%	133.4%		No
Nc1cccc2c1CN([C@H]1CC(=O)NC1=O)C2=O		124.9%		No
Nc1ccccc1S(=O)(=O)NC1CCC(=O)NC1=O (stereo not shown)	99.1%	54.7%		Yes*

Structure (SMILES)	viability [1]	IL-2 (%) (Relative to DMSO) [2]	inhibition at 200 µM [3]	Cereblon Binding (≥50% inhibition at 200 μM) [3]
CC(C)[C@H](NC(=O)c1ccccc1)C(=O)NC1CCC(=O)NC1=O (stereo partly shown)	99.1%	84.5%		Yes*
O=C1CCC(NS(=O)(=O)c2ccc([N+](=O)[O-])cc2)C(=O)N1 (stereo not shown)	93.4%	56.3%		Yes*
O=C1CCC(N2CCc3ccccc3C2)C(=O)N1 (stereo not shown)	99.5%	105.4%		Yes*
O=C1CCC(N2CCc3ccccc32)C(=O)N1 (stereo not shown)	98.7%			
O=C1CCC(N2Cc3ccccc3C2)C(=O)N1 (stereo not shown)	84.8%	69.0%		Yes*
O=c1ccn(CCCc2ccccc2)c(=O)[nH]1	93.1%	99.7%		Yes*
O=c1ccn(Cc2ccccc2)c(=O)[nH]1	79.5%	88.2%		Yes*
O=c1ccn(CCNS(=O)(=O)c2ccccc2)c(=O)[nH]1	77.8%	90.8%		Yes*
O=c1ccn(CCCCc2ccccc2)c(=O)[nH]1	86.4%	101.8%		Yes*
O=c1ccn(CCCc2ccc(Cl)cc2)c(=O)[nH]1	90.7%	93.9%		Yes*
CNc1ccccc1C(=O)NCCn1cc(F)c(=O)[nH]c1=O	79.2%	75.1%		Yes*
Nc1ccccc1C(=O)NCCn1cc(F)c(=O)[nH]c1=O	89.7%	109.0%		Yes*
COc1ccc2c(c1)CCN(C1CCC(=O)NC1=O)C2 (stereo not shown)	74.4%	79.0%		Yes*
O=C1CCC(NS(=O)(=O)c2ccc3c(c2)OCCCO3)C(=O)N1 (stereo not shown)	73.6%	61.6%		Yes*
Nc1cc(Cl)ccc1C(=O)NCCn1ccc(=O)[nH]c1=O	70.4%	67.3%		Yes*
Nc1ccc(Cl)cc1C(=O)NCCn1ccc(=O)[nH]c1=O	74.8%	51.2%		Yes*
Cc1ccc(N)c(C(=O)NCCn2ccc(=O)[nH]c2=O)c1	75.2%	83.7%		Yes*
Nc1cccc(F)c1C(=O)NCCn1ccc(=O)[nH]c1=O	95%	107.0%		Yes*
O=C1CCC(N2CCc3ccc(Cl)cc3C2)C(=O)N1 (stereo not shown)	93.2%	69.9%		Yes*
Nc1ccc2c(c1)CCN(C1CCC(=O)NC1=O)C2 (stereo not shown)	95.8%	54.6%		Yes*
Nc1cccc2c1CN(C1CCC(=O)NC1=O)C2=O (stereo not shown) [drawing 75]	99.9%			
